Like-named read-outs stand apart in the source and are kept apart here.
Legend:
[1] = tested on: Wnt signaling; experiment: TopFlash reporter gene bioassay in SW480 cells; assay type: cell-based; settings: Homo sapiens
Description: Inhibition activity against Wnt signaling was measured by the TopFlash reporter. The lower IC50 value means the higher inhibition activity.
TopFlash reporter gene Bioassay for the measurement of IC50 against SW480 cells
The test compound (Compound A) used in this example was prepared in Preparation Example 2. SW480 cells were transfected with the usage of Superfect™ transfect reagent (Qiagen, 301307). Cells were trypsinized briefly 1 day before transfection and plated on 6 well plate (5×10^5 cells/well) so that they were 50-80% confluent on the day of transfection.
Four microgram (TopFlash) and one microgram (pRL-null) of DNAs were diluted in 150 μl of serum-free medium, and 30 μl of Superfect™ transfect reagent was added. The DNA-Superfect mixture was incubated at room temperature for 15 min, and then, 1 ml of 10% FBS DMEM was added to this complex for an additional 3 hours of incubation. While complexes were forming, cells were washed with PBS twice without antibiotics.
The DNA-Superfect™ transfect reagent complexes were applied to the cells before incubating at 37° C. at 5% CO2 for 3 hours. After incubation, recovery medium with 10% FBS was added to bring the final volume to 1.18 ml. After 3 hours incubation, the cells were harvested and reseeded to a 96 well plate (3×10^4 cells/well). After overnight incubation at 37° C. at 5% CO2, the cells were treated with Compound A for 24 hours. […]

[2] = molecular target: T1, cDNA-expressed human hepatic CYP3A4 (Homo sapiens, UniProt P08684); experiment: P450 CYP3A4 inhibitory activity screening (fluorescent assay, BFC substrate); assay type: in vitro ADME
T1 construct: purchased BD Gentest 456202
Description: Assay was conducted in a 200 μL volume in 96-well microtiter plates using cDNA-expressed human hepatic CYP3A4 (supersome, BD Gentest™ #456202). 7-Benzyloxy-4-trifluoromethyl-coumarin (BFC) was used as a substrate for CYP3A4. Test articles and substrate BFC were dissolved in 100% acetonitrile. The final volume of acetonitrile in the incubation mixture was less than 1% (volume/volume). Potassium phosphate buffer (pH 7.4, final concentration 0.1 M), MgCl2 (final concentration 8.3 mM), EDTA (final concentration 1.67 mM), a test article stock solution, a CYP3A4 supersome and NADPH (final concentration 0.25 mM) were added to each well. The reaction was initiated by the addition of substrate (BFC, final concentration 30 µM) after a 10 min pre-incubation at 37° C. After 10 min incubation at 37° C., the reaction was terminated by the addition of […] of acetonitrile:0.5 M Tris-base=4:1 (volume/volume). Thereafter, Fluorescent signal was measured using a fluorometer. BFC metabolite, 7-hydroxy-4-trifluoromethyl-coumarin, was measured using an excitation wavelength of 409 nm and an emission wavelength of 530 nm.

[3] = tested on: MV-4-11 cells; experiment: Cell growth inhibition assay on AML cancer cells; assay type: cell-based; settings: Homo sapiens, MV4-11, 72 hours
Description: Cell growth Inhibition assay was performed to investigate the rate of inhibition of cell proliferation by the test compounds. MV-4-11 (human, Acute Myeloid Leukemia cell line) cells were cultured in Iscove's modified Dulbecco's medium (IMDM) including 10% fetal bovine serum (FBS), 1× penicillin/streptomycin (10,000 units/ml Penicillin, […] Streptomycin in 0.85% NaCl). MV-4-11 cells were harvested with IMDM medium and 5×10^4 cells/well were transferred to each well of 96 well culture plates (Nunc, #167008). The test compounds were treated with the serial dilution and duplicated for each concentration. For the serial dilution, the test compounds were repeatedly diluted with the same volume of media onto 96-well assay block (costar, #3956). After the dilution, each compound was added to each well. The background absorbance was also measured during the test compounds treatment by adding the IMDM media in replacement of test compound to the negative control plate. The plates were incubated for 3 days (72 hours) at 37° C. in the humidified incubator containing 5% CO2. On the last day, 20 μL of CellTiter 96 Aqueous One Solution (Promega #G3581) was added to the culture in each well and the plates were incubated for a few hours at 37° C. in the humidified incubator containing 5% CO2. After the incubation, the absorbance of each cell was measured at 490 nm using an EnVision (Perkinelmer, USA). The […] values were calculated using a Prism 3.0 program.

[4] = MV-4-11 cells, FIG. 4, read-out: GI50
[5] = fluorescent assay, read-out: CYP3A4 inhibition, IC50 (μM) fluorescent assay
[6] = MV-4-11 AML cells, read-out: MV-4-11, GI50

T1 sequence (P08684 whole entry): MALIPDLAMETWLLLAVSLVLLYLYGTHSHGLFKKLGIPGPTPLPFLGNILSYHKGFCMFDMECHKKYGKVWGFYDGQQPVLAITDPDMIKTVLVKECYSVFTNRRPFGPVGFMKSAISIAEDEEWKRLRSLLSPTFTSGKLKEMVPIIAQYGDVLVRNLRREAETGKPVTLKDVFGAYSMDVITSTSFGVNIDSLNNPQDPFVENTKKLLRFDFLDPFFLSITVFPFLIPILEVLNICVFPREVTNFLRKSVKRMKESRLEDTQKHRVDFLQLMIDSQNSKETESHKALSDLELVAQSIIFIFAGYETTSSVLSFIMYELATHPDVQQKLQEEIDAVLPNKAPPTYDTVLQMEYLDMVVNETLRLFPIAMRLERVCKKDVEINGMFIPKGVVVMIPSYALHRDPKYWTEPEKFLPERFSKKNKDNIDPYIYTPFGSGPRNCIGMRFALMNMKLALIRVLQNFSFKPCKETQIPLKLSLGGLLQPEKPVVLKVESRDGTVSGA

| IC50 [2, 5] | GI50 [3, 6] | SMILES | also measured |
| --- | --- | --- | --- |
|  |  | C=CCN1CC(=O)N2[C@@H](Cc3ccc(O)cc3)C(=O)N(Cc3ccc4nn(C)nc4c3)C[C@@H]2N1C(=O)NCc1ccccc1 [Compound A, 2-allyl-6-(4-hydroxy-benzyl)-8-(2-methyl-2H-benzotriazol-5-ylmethyl)-4,7-dioxo-hexahydro-pyrazino[2,1-c][1,2,4]triazine-1-carboxylic acid benzylamide] | IC50 ([1]; SW480 cells, TopFlash, 24 hours treatment, FIG. 3, read-out: IC50 of Compound A for SW480 cells): 1 ± 0.254 µM; inhibition of a CYP3A4 enzyme (in words) ([2]; FIG. 2): weak inhibition; IC50 ([2]; Table 6, FIG. 2, read-out: IC50 against CYP3A4 activity): 19.2 µM; GI50 [3, 4]: 262 nM |
|  |  | C=CCN1CC(=O)N2[C@@H](Cc3ccc(O)cc3)C(=O)N(Cc3cccc4c3nnn4CC(N)=O)C[C@@H]2N1C(=O)NCc1ccccc1 [Compound C] | GI50 [3, 4]: 560 nM |
| 19.2 µM | 260 nM | C=CCN1CC(=O)N2[C@@H](Cc3ccc(O)cc3)C(=O)N(Cc3ccc4nn(C)nc4c3)C[C@@H]2N1C(=O)NCc1ccccc1 [compound 1] | IC50 ([1]; SW480, TopFlash reporter gene assay, read-out: RGA, IC50 (μM) TopF): 1 ± 0.25 µM |
| > 50 µM |  | C=CCN1CC(=O)N2[C@@H](Cc3ccc(O)cc3)C(=O)N(Cc3cccc4nnn(CC(=O)O)c34)C[C@@H]2N1C(=O)NCc1ccccc1 [compound 3] |  |
|  | 710 nM | C=CCN1CC(=O)N2[C@@H](Cc3ccc(O)cc3)C(=O)N(Cc3cccc4nnn(CC(=O)OCC)c34)C[C@@H]2N1C(=O)NCc1ccccc1 [compound 3] |  |
| 6.23 µM | 930 nM | C=CCN1CC(=O)N2[C@@H](Cc3ccc(O)cc3)C(=O)N(Cc3cccc4nnn(CC(=O)N5CCOCC5)c34)C[C@@H]2N1C(=O)NCc1ccccc1 [compound 4] |  |
| 7.4 µM |  | C=CCN1CC(=O)N2[C@@H](Cc3ccc(O)cc3)C(=O)N(Cc3cccc4c3nnn4CC(=O)OCC)C[C@@H]2N1C(=O)NCc1ccccc1 [compound 5] |  |
|  | 2970 nM | C=CCN1CC(=O)N2[C@@H](Cc3ccc(O)cc3)C(=O)N(Cc3cccc4nnn(CC(=O)N5CCN(C)CC5)c34)C[C@@H]2N1C(=O)NCc1ccccc1 [compound 5] |  |
| > 50 µM |  | C=CCN1CC(=O)N2[C@@H](Cc3ccc(O)cc3)C(=O)N(Cc3cccc4c3nnn4CC(=O)O)C[C@@H]2N1C(=O)NCc1ccccc1 [compound 6] |  |
|  | 650 nM | C=CCN1CC(=O)N2[C@@H](Cc3ccc(O)cc3)C(=O)N(Cc3cccc4c3nnn4CC(=O)OCC)C[C@@H]2N1C(=O)NCc1ccccc1 [compound 6] |  |
|  | 370 nM | C=CCN1CC(=O)N2[C@@H](Cc3ccc(O)cc3)C(=O)N(Cc3cccc4c3nnn4CC(=O)N3CCOCC3)C[C@@H]2N1C(=O)NCc1ccccc1 [compound 7] |  |
| 41.1 µM |  | C=CCN1CC(=O)N2[C@@H](Cc3ccc(O)cc3)C(=O)N(Cc3cccc4nnn(CC(=O)N(C)C)c34)C[C@@H]2N1C(=O)NCc1ccccc1 [compound 7] |  |
|  | 1920 nM | C=CCN1CC(=O)N2[C@@H](Cc3ccc(O)cc3)C(=O)N(Cc3cccc4nnn(CC(=O)N(C)C)c34)C[C@@H]2N1C(=O)NCc1ccccc1 [compound 8] |  |
| 46.9 µM |  | C=CCN1CC(=O)N2[C@@H](Cc3ccc(O)cc3)C(=O)N(Cc3cccc4nnn(CC(=O)NCCOC)c34)C[C@@H]2N1C(=O)NCc1ccccc1 [compound 8] |  |
| 38 µM |  | C=CCN1CC(=O)N2[C@@H](Cc3ccc(O)cc3)C(=O)N(Cc3cccc4c3nnn4CC(=O)N(C)C)C[C@@H]2N1C(=O)NCc1ccccc1 [compound 9] |  |
|  | 1850 nM | C=CCN1CC(=O)N2[C@@H](Cc3ccc(O)cc3)C(=O)N(Cc3cccc4nnn(CC(=O)NCCOC)c34)C[C@@H]2N1C(=O)NCc1ccccc1 [compound 9] |  |
|  | 560 nM | C=CCN1CC(=O)N2[C@@H](Cc3ccc(O)cc3)C(=O)N(Cc3cccc4c3nnn4CC(N)=O)C[C@@H]2N1C(=O)NCc1ccccc1 [compound 12] |  |
| 33.2 µM |  | C=CCN1CC(=O)N2[C@@H](Cc3ccc(O)cc3)C(=O)N(Cc3cccc4nnn(CC(N)=O)c34)C[C@@H]2N1C(=O)NCc1ccccc1 [compound 12] |  |
| 32.4 µM |  | C=CCN1CC(=O)N2[C@@H](Cc3ccc(O)cc3)C(=O)N(Cc3cccc4c3nnn4CC(=O)NC)C[C@@H]2N1C(=O)NCc1ccccc1 [compound 13] |  |
|  | 3270 nM | C=CCN1CC(=O)N2[C@@H](Cc3ccc(O)cc3)C(=O)N(Cc3cccc4nnn(CC(N)=O)c34)C[C@@H]2N1C(=O)NCc1ccccc1 [compound 13] |  |
|  | 600 nM | C=CCN1CC(=O)N2[C@@H](Cc3ccc(O)cc3)C(=O)N(Cc3cccc4c3nnn4CC(=O)NCc3ccncc3)C[C@@H]2N1C(=O)NCc1ccccc1 [compound 14] |  |
|  | 180 nM | C=CCN1CC(=O)N2[C@@H](Cc3ccc(O)cc3)C(=O)N(Cc3cccc4c3nnn4CC(=O)NC)C[C@@H]2N1C(=O)NCc1ccccc1 [compound 15] |  |

Source: patent US8071764B2, “Compounds of reverse turn mimetics and the use thereof (2)” (Choongwae Pharma Corporation, priority 2008, dated 2011)
